Experimental data published in US6596499B2, “Membrane molecule indicator compositions and methods” (The Netherlands Cancer Institute, priority 2000, dated 2003).

How the values were obtained:
PLC = assay type: cell-based, mouse
N1E-115 cells = settings: N1E-115 and other cells; cited from earlier work

Compound | duration of translocation response (long-lasting) (PLC) [min] | translocation amplitude (PLC) | desensitization of PLC activation on repeated stimulation (PLC) | time for neurites to retract and cell soma to round up (N1E-115 cells) [s]
NCCc1c[nH]cn1 [histamine] | ≥ 15 | 40 % of BK-induced peak values | – | –
neurokinin A [NKA] | – | – | incremental partial homologous desensitization | –
CCCCCCCC/C=C\CCCCCCCC(=O)OCC(O)COP(=O)(O)O (centres unmarked) [LPA, 1-oleoyl LPA] | – | 25 % of BK response control values | – | ≤ 60
